Test results taken from patent US20040076974A1, “Liver necrosis predictive genes” (priority 2002, published 2004).
“And” between values parts separate entries of the source, which are not always exact repeats. Equal entries are not always repeated.

Tested on: toxicologically relevant rat genes (rat CT array)
Details: 24 h; dose 200; listed as BRB

Brc1ccccc1 [bromobenzene]
3-hydroxyisobutyrate dehydrogenase expression (treatment/control): 0.8751 and 1.339 and 0.6927
14-3-3 zeta expression (treatment/control): 1.437 and 1.592
25-DX expression (treatment/control): 1.969 and 1.763 and 1.86
60S ribosomal protein L6 expression (treatment/control): 2.093 and 1.63 and 1.941
Alpha-2-macroglobulin expression (treatment/control): 0.5548 and 0.5467 and 0.459
Apolipoprotein CIII expression (treatment/control): 0.8126 and 0.7007
Argininosuccinate lyase expression (treatment/control): 2.651 and 1.764 and 2.145
Bax (alpha) expression (treatment/control): 1.536 and 1.414 and 1.327
Beta-actin expression (treatment/control): 2.486 and 1.816 and 2.608
Beta-tubulin, class I expression (treatment/control): 2.668 and 1.782 and 2.339
Carbonyl reductase expression (treatment/control): 1.678 and 1.035 and 1.375
Cathepsin L, sequence 2 expression (treatment/control): 2.896 and 1.549 and 2.344
Cofilin expression (treatment/control): 2.923 and 2.064 and 2.935
DNA polymerase beta expression (treatment/control): 1.369 and 1.206 and 1.307
Dynamin-1 (D100) expression (treatment/control): 0.8053 and 0.7635 and 0.8226
Elongation factor-1 alpha expression (treatment/control): 2.054 and 1.728 and 1.8
Endogenous retroviral sequence, 5′ and 3′ LTR expression (treatment/control): 1.854 and 1.585 and 2.582
Enolase alpha expression (treatment/control): 2.419 and 1.535 and 1.712
Epidermal growth factor expression (treatment/control): 0.7593 and 0.7117 and 0.804
Fas antigen expression (treatment/control): 0.9199 and 0.9142 and 1.12
Glucose-regulated protein 78 expression (treatment/control): 1.405 and 1.625 and 1.635
Hepatic lipase expression (treatment/control): 0.569 and 0.6299 and 0.3937
ID-1 expression (treatment/control): 1.9 and 1.248 and 1.715
Integrin beta1 expression (treatment/control): 1.457 and 0.9085 and 1.427
MAP kinase kinase expression (treatment/control): 1.27 and 1.166 and 1.092
Matrin F/G expression (treatment/control): 0.6546 and 0.8987 and 0.4635
Matrix metalloproteinase-1 expression (treatment/control): 1.585 and 1.263 and 1.628
Melanoma-associated antigen ME491 expression (treatment/control): 1.388 and 0.9209 and 1.67
Monocyte chemotactic protein receptor (CCR2) expression (treatment/control): 1.124 and 0.9935 and 1.064
Multidrug resistant protein-2 expression (treatment/control): 1.861 and 1.261 and 1.657
Nucleoside diphosphate kinase beta isoform expression (treatment/control): 1.862 and 1.504 and 1.541
Organic anion transporter 3 expression (treatment/control): 0.5569 and 0.821 and 0.6551
Organic cation transporter 3 expression (treatment/control): 1.241 and 0.9547 and 1.365
Ornithine decarboxylase expression (treatment/control): 2.762 and 1.488 and 2.288
Phase-1 RCT-12 expression (treatment/control): 1.003
Phase-1 RCT-15 expression (treatment/control): 2.352 and 2.155
Phase-1 RCT-36 expression (treatment/control): 0.7233 and 0.7082 and 0.8303
Phase-1 RCT-37 expression (treatment/control): 0.9672
Phase-1 RCT-65 expression (treatment/control): 1.706 and 1.856
Phase-1 RCT-68 expression (treatment/control): 1.972 and 1.887
Phase-1 RCT-72 expression (treatment/control): 1.442
Phase-1 RCT-78 expression (treatment/control): 0.6352 and 0.7712 and 0.5322
Phase-1 RCT-83 expression (treatment/control): 0.6204 and 0.729
Phase-1 RCT-88 expression (treatment/control): 0.7128 and 0.75 and 0.8397
Phase-1 RCT-109 expression (treatment/control): 1.895 and 1.651 and 2.226
Phase-1 RCT-117 expression (treatment/control): 0.6683 and 0.7437
Phase-1 RCT-123 expression (treatment/control): 0.7152 and 0.6828 and 0.8648
Phase-1 RCT-137 expression (treatment/control): 1.102 and 0.6023
Phase-1 RCT-152 expression (treatment/control): 1.957 and 1.542 and 2.109
Phase-1 RCT-154 expression (treatment/control): 0.9986 and 1.304
Phase-1 RCT-168 expression (treatment/control): 0.6821 and 0.7986 and 0.5665
Phase-1 RCT-180 expression (treatment/control): 1.503
Phase-1 RCT-181 expression (treatment/control): 0.8932 and 0.9997
Phase-1 RCT-182 expression (treatment/control): 1.301 and 0.688
Phase-1 RCT-189 expression (treatment/control): 0.5887 and 0.552
Phase-1 RCT-191 expression (treatment/control): 1.728 and 1.302 and 2.139
Phase-1 RCT-192 expression (treatment/control): 1.596
Phase-1 RCT-213 expression (treatment/control): 1.467
Phase-1 RCT-214 expression (treatment/control): 0.4191 and 0.7327 and 0.3835
Phase-1 RCT-239 expression (treatment/control): 0.6828
Phase-1 RCT-258 expression (treatment/control): 0.9631 and 1.542
Phase-1 RCT-271 expression (treatment/control): 0.5825 and 0.5279
Phase-1 RCT-291 expression (treatment/control): 1.199 and 0.6861
Phase-1 RCT-295 expression (treatment/control): 2.141 and 1.945 and 1.916
Proliferating cell nuclear antigen gene expression (treatment/control): 1.304 and 0.7642 and 1.223
Pyruvate kinase, muscle expression (treatment/control): 1.814 and 1.17 and 1.778
Ref-1 expression (treatment/control): 2.201 and 1.238 and 2.06
